Legend:
[1] = Body weight of rabbits injected with peptide/carrier conjugate; assay type: in vivo; conditions: female rabbits, peptide coupled to keyhole limpet hemocyanin, 50 μg of peptide subcutaneously, repeated at two weeks then approximately monthly; P1 and P3 pooled (five rabbits)
Method: These peptides were then coupled chemically to keyhole limpet hemocyanin, a carrier protein, to improve the immunogenicity in rabbits.
Each peptide/carrier conjugate (50 μg of peptide, approximately 30 nanomoles) was injected subcutaneously into three female rabbits (three groups of three rabbits, approximately 2 months old). Two weeks later the rabbits were injected again with the same amounts of peptide/carrier conjugate. Thereafter, each rabbit was injected with the conjugate at approximately monthly intervals and blood samples were drawn. After five months, the rabbits were sacrificed.
Before the first injection, the rabbits were weighed for calculation of anesthetic dose (used to sedate the rabbits during injection). Before the rabbits were sacrificed, they were weighed again as the rabbits which received P2 were quite obese compared to all other rabbits. The average weight of the five injected with peptides P1 and P3 was 4.4 kg. This is normal for adult female rabbits of this type at this age, i.e. the average weight expected at 6 months is 4.5 kg. However, the weights of the rabbits injected with peptide P2 averaged 5.2 kg, approximately 20% higher.

[2] = Weight gain of mice injected with free peptide; assay type: in vivo, mice (BALB/c strain); conditions: BALB/c mice, free peptide 2.5 μg subcutaneously once per week, 85 days, five mice per group
Method: In order to obtain statistically significant data on the effects of peptide P2 on weight gain, another series of experiments using mice were performed. Three groups of five mice (BALB/c strain) were used. The first group received injections of peptide P2, a second group received injections of P3 (as control), and a third group received injections of saline (as control). Free peptides were used to avoid the possibility that the effect observed in Example 1 may have been due to the nature of the chemical coupling to the carrier protein. Each mouse (weighing approximately 15 grams) received an injection of 2.5 μg (1.5 nanomoles) of peptide or saline injected subcutaneously. The mice were weighed three times per week and injected once per week with another 2.5 μg of peptide or saline. After 85 days the mice were sacrificed.

Substance | average weight of the rabbits at the end of five months [1] | effect on weight gain [2]
KRPLQAEEQALSMDF [P1] | 4.4 kg | 
P3: amino-terminal cytochrome b 561 sequence Ser(21) - Tyr(37), cysteine added at amino-terminus, two lysine residues at carboxy-terminus (CSMEGPASPARAPGALPYKK) | 4.4 kg | not different than the P3 control group

Reference: patent US5223484A, “Peptide which regulates weight gain in mammals” (Georgetown University, priority 1990, dated 1993)
